Assay results from US20210380948A1, “METHOD TO ALTER CHINESE HAMSTER OVARY CELL LINE STABILITY” (University of Delaware, priority 2018, published 2021).

What was measured:
[1] = tested on: BHK-21 hamster fibroblast; experiment: γH2AX foci count after bleomycin DSB induction, BHK-21; format: cell-based; settings: for Induced DSB number: one-hour treatment
Method: [The source words this procedure for another cell line and reports this cell line under the same test.] (§1) CHO-K1, bEnd.3 or transfected CHO-K1 cells were seeded in chambers of an 8-well chambered cover glass (Cellvis, Mountain View, Calif.) at 2×10^5 cells/mL with 0.5 mL culture media. After 24-hour incubation, cells were treated with 10 μg/mL bleomycin (Sigma-Aldrich, St. Louis, Mo.) for 1 or 12 hours or with 50 μg/mL for 1 hour, followed by immediate media change with fresh warm culture media. After indicated hours of incubation in fresh media, the treated cells were washed three times with Tris buffered saline (TBS), fixed with 4% paraformaldehyde in TBS for 15 min, washed three times with TBS, permeabilized with 0.1% Triton-X100 (Sigma-Aldrich, St. Louis, Mo.) in TBS for 5 min, and washed three times with TBS. Cells were then blocked in TBS containing 3% goat serum (Sigma-Aldrich, St. Louis, Mo.) for 1 hour, incubated with 1:500 primary antibody (anti-phosphorylated γH2AX antibody, EMD Millipore, Billerica, Mass.) at 4° C. overnight, washed three times with TBS, and incubated with 1:1000 Alexa Fluor 488-conjugated secondary antibody (anti-mouse IgG antibody, Life Technologies, Carlsbad, Calif.) for 1 hour at room temperature. After three TBS washes, nuclei were stained with 4′,6-diamidino-2-phenylindole (DAPI, Invitrogen, Carlsbad, Calif.) for 15 min and again washed three times with TBS. Images were taken using a LSM 710 confocal microscope (Carl Zeiss, Thornwood, N.Y.) with a 63× objective. At least 50 cells and foci were counted per cell sample in duplicate cultures using software ImageJ.

[2] = tested on: bEnd.3 mouse endothelial cells; experiment: γH2AX foci count after bleomycin DSB induction, bEnd.3; format: cell-based; settings: for Induced DSB number: one-hour treatment
Method: as §1

CHO-K1 cells [3] = experiment: γH2AX foci count after bleomycin DSB induction, CHO-K1; format: cell-based, Chinese hamster; settings: for Induced DSB number: one-hour treatment
Method: as §1

CHO-K1 cells [4] = experiment: γH2AX foci count in CHO-K1 cells transiently expressing DSB repair genes after bleomycin treatment; format: cell-based, Chinese hamster; settings: CH-version gene transiently expressed; 12-hour 10 μg/mL bleomycin; FIG. 3
Source text: To clone eight DSB repair genes, total mRNA from CHO-K1 cells or Chinese hamster liver tissue was extracted using Qiagen RNeasy Mini kit and reverse-transcribed into cDNA to be used as templates to generate gene fragments by PCR. FBXO18 gene and partial sequences of RNF8 and LIG4 genes were synthesized as gBlocks Gene Fragments (Integrated DNA Technologies, Coralville, Iowa). A vector fragment was obtained by PCR amplification from plasmid pcDNA3.1/zeo(+) (Thermo Fisher, Waltham, Mass.). Plasmids expressing DSB repair genes were constructed via Gibson assembly of gene fragment(s) and the vector fragment following the manufacturer's instruction (New England Biolabs, Ipswich, Mass.).
CHO-K1, BHK-21 hamster fibroblast (ATCC, Manassas, Va.) and bEnd.3 mouse endothelial cells (ATCC, Manassas, Va.) were cultured in 5 mL Iscove's Modified Dulbecco's Medium (IMDM, Hyclone Laboratories Inc., Logan, Utah) supplemented with 10% fetal bovine serum (FBS, Hyclone Laboratories Inc., Logan, Utah) in T-25 culture flasks (Corning Inc., Corning, N.Y.) at 37° C. and 5% CO2. […]
CHO-K1, bEnd.3 or transfected CHO-K1 cells were seeded in chambers of an 8-well chambered cover glass (Cellvis, Mountain View, Calif.) at 2×10^5 cells/mL with 0.5 mL culture media. […] At least 50 cells and foci were counted per cell sample in duplicate cultures using software ImageJ.

bleomycin
Induced DSB number ([1]; BHK-21, BL 10 μg/mL): 13 | Induced DSB number ([1]; BHK-21, BL 50 μg/mL): 20 | Repair rate ([1]; BHK-21, after BL 10 μg/mL one-hour treatment): 1.8 DSB/hour | Repair rate ([1]; BHK-21, after BL 50 μg/mL one-hour treatment): 2.3 DSB/hour | DSB repair rate after removing bleomycin ([1]; BHK-21 cells, 12-hour treatment with 10 μg/mL bleomycin): 2.64 DSB per hour | DSB repair rate after removing bleomycin ([2]; bEnd.3 cells, 12-hour treatment with 10 μg/mL bleomycin): 1.03 DSB per hour | Induced DSB number ([2]; bEnd.3, BL 10 μg/mL): 14 | Induced DSB number ([2]; bEnd.3, BL 50 μg/mL): 21 | Repair rate ([2]; bEnd.3, after BL 10 μg/mL one-hour treatment): 2.2 DSB/hour | Repair rate ([2]; bEnd.3, after BL 50 μg/mL one-hour treatment): 3.2 DSB/hour | DSB repair rate after removing bleomycin (CHO-K1 cells [3]; CHO cells, 12-hour treatment with 10 μg/mL bleomycin): 0.89 DSB per hour | Induced DSB number (CHO-K1 cells [3]; CHO-K1, BL 10 μg/mL): 6 | Induced DSB number (CHO-K1 cells [3]; CHO-K1, BL 50 μg/mL): 13 | Repair rate (CHO-K1 cells [3]; CHO-K1, after BL 10 μg/mL one-hour treatment): 0.9 DSB/hour | Repair rate (CHO-K1 cells [3]; CHO-K1, after BL 50 μg/mL one-hour treatment): 1.7 DSB/hour

B1: LIG4: heterologous DSB repair protein DNA ligase IV, CH- or CHO-version, expressed from plasmid in CHO-K1 cells (protein, UniProt G3GTP0 1-912, looked up)
DNA ligase 4: MATSQTSQTVAAHVPFADLCSTLERIQKSKERAEKIRHFKEFLDSWRKFHDALHKNKKDVTDSFYPAMRLILPQLERERMAYGIKETMLAKLYIELLNLPREGKDALKLLNYRTPSGARTDAGDFAVIAYFVLKPRCLQKGSLTIQQVNELLDLVASNNSGKRKDLVKKSLLQLITQSSALEQKWLIRMIIKDLKLGVSQQTILNIFHNDAVELHNVTTDLEKVCRQLHDPAVGLSDISITLFSAFKPMLAAVADVERVEKDMKQQSFYIETKLDGERMQMHKDGSVYQYFSRNGYNYTDQFGASPQEGTLTPFIHDAFRTDVQVCILDGEMMAYNPTTQTFMQKGVKFDIKRMVEDSDLQTCYCVFDVLMVNNKKLGRETLRKRYDILNSTFTPIQGRIEIVQKKLAQTKNEVVDALNEAIDKREEGIMIKHPLSIYKPDKRGEGWLKIKPEYVSGLMDELDLLIVGGYWGKGSRGGMMSHFLCAVAEKPPHGEKPSVFHTLCRVGSGYTMKELYDLGLKLAKYWKPFHKKSPPSSILCGTEKPEVYIEPCNSVIVQIKAAEIVPSDMYKTGTTLRFPRIEKIRDDKEWHECMTLGDLEELRGKASGKLATKHLHVGDDDEPREKRRKPVSKMKKTIGIIEHLKAPNLSNISKVSNVFEDVEFCVMSGLDGYPKSDLENRIAEFGGYIVQNPGPDTYCVIAGCENIRVKNIISSDQHDVVKPEWLLECFKTKTCVPWQPRFMIHMCPSTKQHFAREYDCYGDSYFVDTDLDQLKEVFLGIKKAGEHQTPEEMAPVIADLEYRYSWDHSPLCMFRHCTVYLDLYAVINDSSSKIKATRLDVTALELRFHGAKVVSHLSEGVSHVIIGENQSRVSDFKVFRRTLKKKFKILQERWVTDSVDKGELQEENQYLL
DSB level at one hour after bleomycin removal versus control CHO-K1 cells (CHO-K1 cells [4]): lower DSB level | DSB repair within 24 hours after bleomycin removal versus control CHO-K1 cells (CHO-K1 cells [4]): significantly improved DSB repair
